# Bridge positions count the residues as written; N and C are the ends. Square brackets hold non-standard residues; d marks the D form. Peptide text beside a SMILES is read from it. * marks the point of attachment. Bip = N[C@@H](Cc1ccc(-c2ccccc2)cc1)C(=O)O; Phe(3-Me) = Cc1cccc(C[C@H](N)C(=O)O)c1; Val(3-OH) = CC(C)(O)[C@H](N)C(=O)O; Cha = N[C@@H](CC1CCCCC1)C(=O)O; Cit = NC(=O)NCCC[C@H](N)C(=O)O; Carboxymethyl = O=C(O)C*; Orn = NCCC[C@H](N)C(=O)O; Aun = NCCCCCCCCCCC(=O)O; Dab = NCC[C@H](N)C(=O)O; Dap = NC[C@H](N)C(=O)O
# Target: T1, PD-1/PD-L1 interaction (PE-labeled human PD-L1-Ig binding to Jurkat cell line over-expressing human PD-1) (Homo sapiens, UniProt Q15116)
# T1 construct: expressed in transfected cells; host or cells: Jurkat
# Experiment: Jurkat-PD-1 Cell Binding High-Content Screening Assay (CBA)
# Assay type: cell-based
# Details: Jurkat cell line over-expressing human PD-1; PE-labeled PD-L1-Ig 20 nM final; read-out: Jurkat hPD1-PDL1 IC50
# Procedure, shortened: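 Human PD-L1-Ig carrying a covalent PE label on its Ig tag serves as the probe, applied at 20 nM final to compound-treated (2 h, 37° C) Jurkat-hPD-1 cells in medium with 10% fetal calf serum. After one hour, fixation and nuclear staining precede high-content image analysis.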
# T1 sequence (Q15116 25-288): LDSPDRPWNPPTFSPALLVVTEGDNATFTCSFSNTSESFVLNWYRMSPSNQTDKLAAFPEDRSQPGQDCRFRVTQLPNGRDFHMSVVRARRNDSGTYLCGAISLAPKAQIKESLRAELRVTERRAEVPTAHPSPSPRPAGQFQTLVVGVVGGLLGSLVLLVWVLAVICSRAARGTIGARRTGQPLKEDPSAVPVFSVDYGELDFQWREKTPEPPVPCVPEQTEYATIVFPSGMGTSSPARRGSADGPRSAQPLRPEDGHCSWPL
structure (smiles),measurement,value
Cc1cccc(C[C@@H]2NC(=O)[C@H](CC(=O)O)NC(=O)[C@H](Cc3ccc(OCC(=O)O)cc3)NC(=O)[C@H](CN)NC(=O)CSC[C@@H](C(=O)N[C@@H](CCN)C(=O)NCCCCCCCCCCC(=O)O)NC(=O)[C@H](CCCN)NC(=O)[C@H](C(C)C)NC(=O)[C@H](CC3CCCCC3)NC(=O)[C@H](CCN)NC(=O)[C@@H](CC(C)C)NC(=O)[C@H](CCCN)NC(=O)[C@H](Cc3ccc(OCC(=O)O)cc3)NC(=O)[C@H](Cc3ccc(-c4ccccc4)cc3)NC(=O)[C@H](Cc3ccc(OCC(=O)O)cc3)NC2=O)c1 [Compound 2843] ({CH2CO}-[Dap]Y(Carboxymethyl)D[Phe(3-Me)]Y(Carboxymethyl)[Bip]Y(Carboxymethyl)[Orn][dL][Dab][Cha]V[Orn]C[Dab][Aun]-OH; thioether N-14),IC50,9.2 nM
Cc1cccc(C[C@@H]2NC(=O)[C@H](CC(=O)O)NC(=O)[C@H](Cc3ccc(OCC(=O)O)cc3)NC(=O)[C@H](CN)NC(=O)CSC[C@@H](C(=O)N[C@@H](CCN)C(=O)NCCCCCCCCCCC(=O)O)NC(=O)[C@H](CCCN)NC(=O)[C@H](C(C)C)NC(=O)[C@H](CC3CCCCC3)NC(=O)[C@H](CCN)NC(=O)[C@@H](CC(C)C)NC(=O)[C@H](CCCN)NC(=O)[C@H](CCCNC(N)=O)NC(=O)[C@H](Cc3ccc(-c4ccccc4)cc3)NC(=O)[C@H](Cc3ccc(OCC(=O)O)cc3)NC2=O)c1 [Compound 2844] ({CH2CO}-[Dap]Y(Carboxymethyl)D[Phe(3-Me)]Y(Carboxymethyl)[Bip][Cit][Orn][dL][Dab][Cha]V[Orn]C[Dab][Aun]-OH; thioether N-14),IC50,25.5 nM
Cc1cccc(C[C@@H]2NC(=O)[C@H](CC(=O)O)NC(=O)[C@H](Cc3ccc(OCC(=O)O)cc3)NC(=O)[C@H](CN)NC(=O)CSC[C@@H](C(=O)N[C@@H](CCN)C(=O)NCCCCCCCCCCC(=O)O)NC(=O)[C@H](CCCN)NC(=O)[C@H](C(C)C)NC(=O)[C@H](CC3CCCCC3)NC(=O)[C@H](CCN)NC(=O)[C@@H](CC(C)C)NC(=O)[C@H](CCCN)NC(=O)[C@H](CCCNC(N)=O)NC(=O)[C@H](Cc3ccc(-c4ccccc4)cc3)NC(=O)[C@H](C(C)C)NC2=O)c1 [Compound 2845] ({CH2CO}-[Dap]Y(Carboxymethyl)D[Phe(3-Me)]V[Bip][Cit][Orn][dL][Dab][Cha]V[Orn]C[Dab][Aun]-OH; thioether N-14),IC50,14.2 nM
Cc1cccc(C[C@@H]2NC(=O)[C@H](CC(=O)O)NC(=O)[C@H](Cc3ccc(OCC(=O)O)cc3)NC(=O)[C@H](CN)NC(=O)CSC[C@@H](C(=O)N[C@@H](CCN)C(=O)NCCCCCCCCCCC(=O)O)NC(=O)[C@H](CCCN)NC(=O)[C@H](C(C)C)NC(=O)[C@H](CC3CCCCC3)NC(=O)[C@H](CCN)NC(=O)[C@@H](CC(C)C)NC(=O)[C@H](CCCN)NC(=O)[C@H](CCCNC(N)=O)NC(=O)[C@H](Cc3ccc(-c4ccccc4)cc3)NC(=O)[C@H](Cc3ccc(O)cc3)NC2=O)c1 [Compound 2846] ({CH2CO}-[Dap]Y(Carboxymethyl)D[Phe(3-Me)]Y[Bip][Cit][Orn][dL][Dab][Cha]V[Orn]C[Dab][Aun]-OH; thioether N-14),IC50,12.8 nM
Cc1cccc(C[C@@H]2NC(=O)[C@H](CC(=O)O)NC(=O)[C@H](Cc3ccc(OCC(=O)O)cc3)NC(=O)[C@H](CN)NC(=O)CSC[C@@H](C(=O)N[C@@H](CCN)C(=O)NCCCCCCCCCCC(=O)O)NC(=O)[C@H]([C@@H](C)O)NC(=O)[C@H](C(C)C)NC(=O)[C@H](CC3CCCCC3)NC(=O)[C@H](CCN)NC(=O)[C@@H](CC(C)C)NC(=O)[C@H](CCCN)NC(=O)[C@H](CCC(N)=O)NC(=O)[C@H](Cc3ccc(-c4ccccc4)cc3)NC(=O)[C@H](C(C)C)NC2=O)c1 [Compound 2847] ({CH2CO}-[Dap]Y(Carboxymethyl)D[Phe(3-Me)]V[Bip]Q[Orn][dL][Dab][Cha]VTC[Dab][Aun]-OH; thioether N-14),IC50,20.5 nM
Cc1cccc(C[C@@H]2NC(=O)[C@H](CC(=O)O)NC(=O)[C@H](Cc3ccc(OCC(=O)O)cc3)NC(=O)[C@H](CCCNC(=N)N)NC(=O)CSC[C@@H](C(=O)N[C@@H](CCN)C(=O)NCCCCCCCCCCC(=O)O)NC(=O)[C@H](CCCN)NC(=O)[C@H](C(C)(C)O)NC(=O)[C@H](CC3CCCCC3)NC(=O)[C@H](CCN)NC(=O)[C@@H](CC(C)C)NC(=O)[C@H](CCCN)NC(=O)[C@H](Cc3ccc(OCC(=O)O)cc3)NC(=O)[C@H](Cc3ccc(-c4ccccc4)cc3)NC(=O)[C@H](Cc3ccc(OCC(=O)O)cc3)NC2=O)c1 [Compound 2849] ({CH2CO}-RY(Carboxymethyl)D[Phe(3-Me)]Y(Carboxymethyl)[Bip]Y(Carboxymethyl)[Orn][dL][Dab][Cha][Val(3-OH)][Orn]C[Dab][Aun]-OH; thioether N-14),IC50,5 nM
Cc1cccc(C[C@@H]2NC(=O)[C@H](CC(=O)O)NC(=O)[C@H](Cc3ccc(OCC(=O)O)cc3)NC(=O)[C@H](CCCNC(=N)N)NC(=O)CSC[C@@H](C(=O)N[C@@H](CCCCN)C(=O)NCCCCCCCCCCC(=O)O)NC(=O)[C@H](CN)NC(=O)[C@H](C(C)(C)O)NC(=O)[C@H](CC3CCCCC3)NC(=O)[C@H](CCN)NC(=O)[C@@H](CC(C)C)NC(=O)[C@H](CCCN)NC(=O)[C@H](Cc3ccc(OCC(=O)O)cc3)NC(=O)[C@H](Cc3ccc(-c4ccccc4)cc3)NC(=O)[C@H](Cc3ccc(OCC(=O)O)cc3)NC2=O)c1 [Compound 2850] ({CH2CO}-RY(Carboxymethyl)D[Phe(3-Me)]Y(Carboxymethyl)[Bip]Y(Carboxymethyl)[Orn][dL][Dab][Cha][Val(3-OH)][Dap]CK[Aun]-OH; thioether N-14),IC50,30.4 nM
Cc1cccc(C[C@@H]2NC(=O)[C@H](CC(=O)O)NC(=O)[C@H](Cc3ccc(OCC(=O)O)cc3)NC(=O)[C@H](CCCNC(=N)N)NC(=O)CSC[C@@H](C(=O)N[C@@H](CO)C(=O)N[C@@H](CO)C(=O)NCCCCCCCCCCC(=O)O)NC(=O)[C@H]([C@@H](C)O)NC(=O)[C@H](C(C)C)NC(=O)[C@H](CC3CCCCC3)NC(=O)[C@H](CCN)NC(=O)[C@@H](CC(C)C)NC(=O)[C@H](CCCN)NC(=O)[C@H](CCCNC(N)=O)NC(=O)[C@H](Cc3ccc(-c4ccccc4)cc3)NC(=O)[C@H](C(C)C)NC2=O)c1 [Compound 2851] ({CH2CO}-RY(Carboxymethyl)D[Phe(3-Me)]V[Bip][Cit][Orn][dL][Dab][Cha]VTCSS[Aun]-OH; thioether N-14),IC50,21.3 nM
Cc1cccc(C[C@@H]2NC(=O)[C@H](CC(=O)O)NC(=O)[C@H](Cc3ccc(OCC(=O)O)cc3)NC(=O)[C@H](CN)NC(=O)CSC[C@@H](C(=O)N[C@@H](CO)C(=O)N[C@@H](CO)C(=O)NCCCCCCCCCCC(=O)O)NC(=O)[C@H]([C@@H](C)O)NC(=O)[C@H](C(C)C)NC(=O)[C@H](CC3CCCCC3)NC(=O)[C@H](CCN)NC(=O)[C@@H](CC(C)C)NC(=O)[C@H](CCCN)NC(=O)[C@H](CCCNC(N)=O)NC(=O)[C@H](Cc3ccc(-c4ccccc4)cc3)NC(=O)[C@H](C(C)C)NC2=O)c1 [Compound 2852] ({CH2CO}-[Dap]Y(Carboxymethyl)D[Phe(3-Me)]V[Bip][Cit][Orn][dL][Dab][Cha]VTCSS[Aun]-OH; thioether N-14),IC50,21 nM
Cc1cccc(C[C@@H]2NC(=O)[C@H](CC(=O)O)NC(=O)[C@H](Cc3ccc(OCC(=O)O)cc3)NC(=O)[C@H](CN)NC(=O)CSC[C@@H](C(=O)N[C@@H](CCN)C(=O)N[C@@H](CO)C(=O)N[C@@H](CO)C(=O)NCCCCCCCCCCC(=O)O)NC(=O)[C@H]([C@@H](C)O)NC(=O)[C@H](C(C)C)NC(=O)[C@H](CC3CCCCC3)NC(=O)[C@H](CCN)NC(=O)[C@@H](CC(C)C)NC(=O)[C@H](CCCN)NC(=O)[C@H](CCCNC(N)=O)NC(=O)[C@H](Cc3ccc(-c4ccccc4)cc3)NC(=O)[C@H](C(C)C)NC2=O)c1 [Compound 2853] ({CH2CO}-[Dap]Y(Carboxymethyl)D[Phe(3-Me)]V[Bip][Cit][Orn][dL][Dab][Cha]VTC[Dab]SS[Aun]-OH; thioether N-14),IC50,65.5 nM
Cc1cccc(C[C@@H]2NC(=O)[C@H](CC(=O)O)NC(=O)[C@H](Cc3ccc(OCC(=O)O)cc3)NC(=O)[C@H](CCCNC(=N)N)NC(=O)CSC[C@@H](C(=O)N[C@@H](CCN)C(=O)NCCCCCCCCCCC(=O)O)NC(=O)[C@H]([C@@H](C)O)NC(=O)[C@H](C(C)C)NC(=O)[C@H](CC3CCCCC3)NC(=O)[C@H](CCN)NC(=O)[C@@H](CC(C)C)NC(=O)[C@H](CCCN)NC(=O)[C@H](CCC(N)=O)NC(=O)[C@H](Cc3ccc(-c4ccccc4)cc3)NC(=O)[C@H](Cc3ccc(OCC(=O)O)cc3)NC2=O)c1 [Compound 2854] ({CH2CO}-RY(Carboxymethyl)D[Phe(3-Me)]Y(Carboxymethyl)[Bip]Q[Orn][dL][Dab][Cha]VTC[Dab][Aun]-OH; thioether N-14),IC50,16.8 nM
Cc1cccc(C[C@@H]2NC(=O)[C@H](CC(=O)O)NC(=O)[C@H](Cc3ccc(OCC(=O)O)cc3)NC(=O)[C@H](CCCNC(=N)N)NC(=O)CSC[C@@H](C(=O)N[C@@H](CCCN)C(=O)NCCCCCCCCCCC(=O)O)NC(=O)[C@H](CCC(N)=O)NC(=O)[C@H](C(C)C)NC(=O)[C@H](CC3CCCCC3)NC(=O)[C@H](CCN)NC(=O)[C@@H](CC(C)C)NC(=O)[C@H](CCN)NC(=O)[C@H](Cc3ccc(OCC(=O)O)cc3)NC(=O)[C@H](Cc3ccc(-c4ccccc4)cc3)NC(=O)[C@H](Cc3ccc(OCC(=O)O)cc3)NC2=O)c1 [Compound 2855] ({CH2CO}-RY(Carboxymethyl)D[Phe(3-Me)]Y(Carboxymethyl)[Bip]Y(Carboxymethyl)[Dab][dL][Dab][Cha]VQC[Orn][Aun]-OH; thioether N-14),IC50,19.6 nM
Cc1cccc(C[C@@H]2NC(=O)[C@H](CC(=O)O)NC(=O)[C@H](Cc3ccc(OCC(=O)O)cc3)NC(=O)[C@H](CN)NC(=O)CSC[C@@H](C(=O)N[C@@H](CCCN)C(=O)NCCCCCCCCCCC(=O)O)NC(=O)[C@H](CCC(=O)O)NC(=O)[C@H](C(C)C)NC(=O)[C@H](CC3CCCCC3)NC(=O)[C@H](CCN)NC(=O)[C@@H](CC(C)C)NC(=O)[C@H](CCN)NC(=O)[C@H](Cc3ccc(OCC(=O)O)cc3)NC(=O)[C@H](Cc3ccc(-c4ccccc4)cc3)NC(=O)[C@H](Cc3ccc(OCC(=O)O)cc3)NC2=O)c1 [Compound 2856] ({CH2CO}-[Dap]Y(Carboxymethyl)D[Phe(3-Me)]Y(Carboxymethyl)[Bip]Y(Carboxymethyl)[Dab][dL][Dab][Cha]VEC[Orn][Aun]-OH; thioether N-14),IC50,19.7 nM

# From US20260022142A1, “MACROCYCLIC IMMUNOMODULATORS” (Bristol-Myers Squibb Company, priority 2022, published 2026)
